Source: PubChem BioAssay (NCI)
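Values below derive from 48-hour exposures of cells grown in 96-well plates, with endpoints linearly interpolated between the two concentrations bracketing the appropriate inhibition level. The concentration for 50% growth inhibition is given as GI50. TGI is the concentration that stops growth completely.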

Columns and labels:
Experiment in all cases: NCI anticancer screen, dose series, 48 h
[1] = system: SF-539 CNS
[2] = system: ACHN renal
[3] = system: SW-620 colon
[4] = system: SR leukemia
[5] = system: SK-MEL-2 melanoma
[6] = system: NCI-H23 lung
[7] = system: SK-OV-3 ovarian
[8] = system: HCC-2998 colon
[9] = system: BT-549 breast
[10] = system: PC-3 prostate

| SMILES | TGI [1] [µM] | TGI [2] [µM] | TGI [3] [µM] | TGI [4] [µM] | TGI [5] [µM] | TGI [6] [µM] | TGI [7] [µM] | TGI [8] [µM] | GI50 [1] [µM] | GI50 [9] [µM] | TGI [9] [µM] | GI50 [2] [µM] | GI50 [3] [µM] | GI50 [5] [µM] | GI50 [10] [µM] | TGI [10] [µM] | GI50 [6] [µM] | GI50 [7] [µM] | GI50 [8] [µM] | GI50 [4] [µM] |
| --- | --- | --- | --- | --- | --- | --- | --- | --- | --- | --- | --- | --- | --- | --- | --- | --- | --- | --- | --- | --- |
| NCC1(N2CCOCC2)C2CCCC21CO (stereo not given) | > 100 | > 100 | > 100 | > 100 | > 100 | > 100 | > 100 | > 100 | – | – | – | – | – | – | – | – | – | – | – | – |
| CC1CC2C(=O)NC(=O)C2c2[nH]c3ccccc3c21 (stereo not given) | > 100 | > 100 | > 100 | > 100 | > 100 | > 100 | > 100 | – | – | – | – | – | – | – | – | – | – | – | – | – |
| C=C1C(=O)O[C@@H]2C1CC(=O)C(C)CC/C=C(\C)CCC[C@H](C)[C@H]2OC(C)=O (stereo not given in full) | 34.6 | 24.1 | 21.9 | – | 45.5 | 29.5 | 34.1 | 29.9 | 18.3 | 13 | 30.2 | 11.4 | 9.18 | 17.6 | 13.7 | 30.6 | 13.9 | 17 | 15.6 | – |
| COC12C=CC(CC1)c1c(O)ccc(O)c12 (stereo not given) | > 100 | > 61.4 | > 63.8 | 36.3 | > 76.3 | > 100 | > 100 | > 100 | – | – | – | – | – | – | – | – | – | – | – | – |
| C=C1C(=O)O[C@H]2C[C@@H](C)[C@@H]3CC(=O)OC[C@@]3(C)CC12 (stereo not given in full) | 48 | 60 | 35.1 | – | > 100 | 62.5 | > 100 | 98.5 | – | – | – | – | – | – | – | – | – | – | – | – |
| Fc1ccc2[nH]cc(Cc3c[nH]c4ccc(F)cc34)c2c1 | 33.6 | 63 | 58.8 | > 100 | 46.1 | 53.5 | – | 30.3 | 15.7 | 13.9 | 30.3 | 26.1 | 23.7 | 19.8 | 15 | 35 | 22.2 | – | 13.3 | 31.1 |
| CCOC(=O)C=C1CCN(C(=O)c2ccccc2)CC1 | > 100 | > 100 | > 100 | > 100 | 0.284 | > 100 | > 100 | > 100 | – | – | – | – | – | – | – | – | – | – | – | – |
| CN1CCc2c1nc(-c1ccccc1)c1c2N(C)CC1 | > 100 | > 100 | > 100 | – | > 100 | > 100 | > 100 | > 100 | – | – | – | – | – | – | – | – | – | – | – | – |
| O=C(O)CS(=O)(=O)C(c1ccccc1)c1ccccc1 | > 100 | > 100 | > 100 | > 100 | > 100 | > 100 | > 100 | – | – | – | > 100 | – | – | – | – | > 100 | – | – | – | – |
| COc1cccc(OC(=O)c2ccccc2Nc2ccnc(C(F)(F)F)c2)c1 | – | 24.7 | > 100 | – | > 100 | 6.73 | – | – | – | 8.11 | 55 | 3.4 | 4.37 | 34.4 | 3.25 | > 100 | 2.04 | – | – | – |
| O=C1C/C(=C/c2ccc(/C=C3/CC(=O)N(c4cccc(Br)c4)C3=O)cc2)C(=O)N1c1cccc(Br)c1 | > 100 | > 100 | > 100 | > 100 | > 100 | > 100 | > 100 | > 100 | – | – | – | – | – | – | – | – | – | – | – | – |
